Assay results taken from ChEMBL document CHEMBL1201862, “PubChem BioAssay data set” (2004).
Calls of active or inactive are those of the source.

Tests used:
Format in all cases: functional
[1] = biological target: Serine/threonine-protein kinase pim-1 (Homo sapiens, UniProt P11309)
[2] = biological target: Dual specificity mitogen-activated protein kinase kinase 1 (Homo sapiens, UniProt Q02750); experiment: Navigating the Kinome. Panel member name: MAP2K1
[3] = biological target: Protein kinase C theta type (Homo sapiens, UniProt Q04759); experiment: Navigating the Kinome. Panel member name: PRKCQ
Chain of Protein kinase C theta type (Q04759 whole entry): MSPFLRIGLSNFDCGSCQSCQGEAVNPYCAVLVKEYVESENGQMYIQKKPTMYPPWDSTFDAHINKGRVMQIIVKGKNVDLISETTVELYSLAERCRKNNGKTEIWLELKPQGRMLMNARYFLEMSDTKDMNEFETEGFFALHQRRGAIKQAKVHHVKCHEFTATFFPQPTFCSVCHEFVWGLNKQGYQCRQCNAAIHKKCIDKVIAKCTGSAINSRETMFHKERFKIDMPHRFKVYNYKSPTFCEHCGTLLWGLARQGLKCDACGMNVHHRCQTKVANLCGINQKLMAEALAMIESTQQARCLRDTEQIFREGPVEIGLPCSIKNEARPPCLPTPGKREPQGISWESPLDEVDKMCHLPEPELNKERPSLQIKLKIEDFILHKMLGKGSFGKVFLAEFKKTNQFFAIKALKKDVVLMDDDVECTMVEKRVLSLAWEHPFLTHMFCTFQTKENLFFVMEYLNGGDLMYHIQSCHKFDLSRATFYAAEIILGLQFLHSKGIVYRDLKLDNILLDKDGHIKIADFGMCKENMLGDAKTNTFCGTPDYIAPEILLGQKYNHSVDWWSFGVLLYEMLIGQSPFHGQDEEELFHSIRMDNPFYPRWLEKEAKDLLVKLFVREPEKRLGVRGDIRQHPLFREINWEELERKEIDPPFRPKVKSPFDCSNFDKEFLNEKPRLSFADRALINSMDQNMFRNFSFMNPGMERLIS

[4] = biological target: T1, Tyrosine-protein kinase JAK3 (Homo sapiens, UniProt P52333)
T1 sequence (P52333 whole entry): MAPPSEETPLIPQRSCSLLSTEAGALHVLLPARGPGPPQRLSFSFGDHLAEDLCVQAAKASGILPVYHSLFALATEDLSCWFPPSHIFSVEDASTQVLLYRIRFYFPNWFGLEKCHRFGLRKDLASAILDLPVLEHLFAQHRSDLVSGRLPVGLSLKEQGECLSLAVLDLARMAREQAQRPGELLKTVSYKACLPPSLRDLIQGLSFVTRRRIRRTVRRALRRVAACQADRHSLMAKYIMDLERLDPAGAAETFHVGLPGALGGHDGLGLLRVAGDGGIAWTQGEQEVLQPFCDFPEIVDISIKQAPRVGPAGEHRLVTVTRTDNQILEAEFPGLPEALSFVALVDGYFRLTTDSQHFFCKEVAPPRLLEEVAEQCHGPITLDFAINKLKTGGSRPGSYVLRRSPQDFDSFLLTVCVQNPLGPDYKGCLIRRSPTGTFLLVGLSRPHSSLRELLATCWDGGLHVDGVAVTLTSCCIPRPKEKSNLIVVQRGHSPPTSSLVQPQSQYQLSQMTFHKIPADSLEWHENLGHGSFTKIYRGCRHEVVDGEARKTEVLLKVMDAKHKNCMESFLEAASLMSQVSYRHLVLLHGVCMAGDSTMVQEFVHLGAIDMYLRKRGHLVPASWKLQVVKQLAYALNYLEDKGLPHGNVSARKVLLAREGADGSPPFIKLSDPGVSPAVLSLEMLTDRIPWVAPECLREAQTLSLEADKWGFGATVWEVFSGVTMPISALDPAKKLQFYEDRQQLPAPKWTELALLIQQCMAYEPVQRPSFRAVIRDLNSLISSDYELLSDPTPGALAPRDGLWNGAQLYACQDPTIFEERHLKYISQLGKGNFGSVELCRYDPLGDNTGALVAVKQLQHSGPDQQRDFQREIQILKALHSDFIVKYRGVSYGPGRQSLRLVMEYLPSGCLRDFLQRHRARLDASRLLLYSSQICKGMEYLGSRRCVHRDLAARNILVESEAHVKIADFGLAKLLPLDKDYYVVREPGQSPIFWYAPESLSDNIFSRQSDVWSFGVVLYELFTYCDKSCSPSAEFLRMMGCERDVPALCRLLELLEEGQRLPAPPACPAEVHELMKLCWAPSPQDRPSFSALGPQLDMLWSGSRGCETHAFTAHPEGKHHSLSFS

[5] = biological target: Cyclin-dependent kinase 9 (Homo sapiens, UniProt P50750);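 also: value from the CDK9 entry of a kinome-spanning kinase panel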
[6] = biological target: High affinity nerve growth factor receptor (Homo sapiens, UniProt P04629);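 also: NTRK1 tested as one member of a kinome-wide profiling panel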
Chain of High affinity nerve growth factor receptor (P04629 whole entry): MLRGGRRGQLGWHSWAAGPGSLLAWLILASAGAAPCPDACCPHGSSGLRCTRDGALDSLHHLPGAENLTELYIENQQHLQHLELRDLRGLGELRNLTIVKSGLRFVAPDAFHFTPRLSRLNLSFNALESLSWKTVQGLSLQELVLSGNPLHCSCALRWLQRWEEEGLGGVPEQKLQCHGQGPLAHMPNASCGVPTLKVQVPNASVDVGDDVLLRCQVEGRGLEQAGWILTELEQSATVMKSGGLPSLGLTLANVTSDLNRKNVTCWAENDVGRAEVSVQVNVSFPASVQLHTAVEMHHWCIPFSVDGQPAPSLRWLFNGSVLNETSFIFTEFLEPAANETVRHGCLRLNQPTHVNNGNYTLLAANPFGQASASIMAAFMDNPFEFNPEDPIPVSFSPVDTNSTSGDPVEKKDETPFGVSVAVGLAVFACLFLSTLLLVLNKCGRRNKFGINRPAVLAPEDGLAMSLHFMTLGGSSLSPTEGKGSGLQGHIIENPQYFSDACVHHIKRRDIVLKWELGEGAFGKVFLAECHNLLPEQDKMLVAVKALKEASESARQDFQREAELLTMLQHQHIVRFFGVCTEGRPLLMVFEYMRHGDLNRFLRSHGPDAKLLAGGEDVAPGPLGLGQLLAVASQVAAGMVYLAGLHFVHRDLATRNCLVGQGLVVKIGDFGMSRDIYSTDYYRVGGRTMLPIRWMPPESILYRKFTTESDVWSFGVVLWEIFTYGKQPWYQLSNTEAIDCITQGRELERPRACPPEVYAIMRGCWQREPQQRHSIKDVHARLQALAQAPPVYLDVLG

[7] = biological target: Macrophage-stimulating protein receptor (Homo sapiens, UniProt Q04912); experiment: Navigating the Kinome. Panel member name: MST1R
[8] = biological target: Mitogen-activated protein kinase 14 (Homo sapiens, UniProt Q16539);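 also: part of a kinome-wide panel, MAPK14 entry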
Chain of Mitogen-activated protein kinase 14 (Q16539 whole entry): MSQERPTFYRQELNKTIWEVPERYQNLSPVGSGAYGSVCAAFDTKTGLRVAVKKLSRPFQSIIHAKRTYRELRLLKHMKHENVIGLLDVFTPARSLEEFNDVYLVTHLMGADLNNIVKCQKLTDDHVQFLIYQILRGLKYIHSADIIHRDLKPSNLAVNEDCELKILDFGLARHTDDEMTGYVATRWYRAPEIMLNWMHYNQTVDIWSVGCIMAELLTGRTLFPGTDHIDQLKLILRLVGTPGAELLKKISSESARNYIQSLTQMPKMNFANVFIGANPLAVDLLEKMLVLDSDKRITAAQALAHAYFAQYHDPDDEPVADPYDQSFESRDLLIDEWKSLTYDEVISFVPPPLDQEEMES

[9] = biological target: Leucine-rich repeat serine/threonine-protein kinase 2 (Homo sapiens, UniProt Q5S007);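 also: value from a broad kinome-wide panel profiling study in which LRRK2 was one of the kinases tested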
Chain of Leucine-rich repeat serine/threonine-protein kinase 2 (Q5S007 whole entry): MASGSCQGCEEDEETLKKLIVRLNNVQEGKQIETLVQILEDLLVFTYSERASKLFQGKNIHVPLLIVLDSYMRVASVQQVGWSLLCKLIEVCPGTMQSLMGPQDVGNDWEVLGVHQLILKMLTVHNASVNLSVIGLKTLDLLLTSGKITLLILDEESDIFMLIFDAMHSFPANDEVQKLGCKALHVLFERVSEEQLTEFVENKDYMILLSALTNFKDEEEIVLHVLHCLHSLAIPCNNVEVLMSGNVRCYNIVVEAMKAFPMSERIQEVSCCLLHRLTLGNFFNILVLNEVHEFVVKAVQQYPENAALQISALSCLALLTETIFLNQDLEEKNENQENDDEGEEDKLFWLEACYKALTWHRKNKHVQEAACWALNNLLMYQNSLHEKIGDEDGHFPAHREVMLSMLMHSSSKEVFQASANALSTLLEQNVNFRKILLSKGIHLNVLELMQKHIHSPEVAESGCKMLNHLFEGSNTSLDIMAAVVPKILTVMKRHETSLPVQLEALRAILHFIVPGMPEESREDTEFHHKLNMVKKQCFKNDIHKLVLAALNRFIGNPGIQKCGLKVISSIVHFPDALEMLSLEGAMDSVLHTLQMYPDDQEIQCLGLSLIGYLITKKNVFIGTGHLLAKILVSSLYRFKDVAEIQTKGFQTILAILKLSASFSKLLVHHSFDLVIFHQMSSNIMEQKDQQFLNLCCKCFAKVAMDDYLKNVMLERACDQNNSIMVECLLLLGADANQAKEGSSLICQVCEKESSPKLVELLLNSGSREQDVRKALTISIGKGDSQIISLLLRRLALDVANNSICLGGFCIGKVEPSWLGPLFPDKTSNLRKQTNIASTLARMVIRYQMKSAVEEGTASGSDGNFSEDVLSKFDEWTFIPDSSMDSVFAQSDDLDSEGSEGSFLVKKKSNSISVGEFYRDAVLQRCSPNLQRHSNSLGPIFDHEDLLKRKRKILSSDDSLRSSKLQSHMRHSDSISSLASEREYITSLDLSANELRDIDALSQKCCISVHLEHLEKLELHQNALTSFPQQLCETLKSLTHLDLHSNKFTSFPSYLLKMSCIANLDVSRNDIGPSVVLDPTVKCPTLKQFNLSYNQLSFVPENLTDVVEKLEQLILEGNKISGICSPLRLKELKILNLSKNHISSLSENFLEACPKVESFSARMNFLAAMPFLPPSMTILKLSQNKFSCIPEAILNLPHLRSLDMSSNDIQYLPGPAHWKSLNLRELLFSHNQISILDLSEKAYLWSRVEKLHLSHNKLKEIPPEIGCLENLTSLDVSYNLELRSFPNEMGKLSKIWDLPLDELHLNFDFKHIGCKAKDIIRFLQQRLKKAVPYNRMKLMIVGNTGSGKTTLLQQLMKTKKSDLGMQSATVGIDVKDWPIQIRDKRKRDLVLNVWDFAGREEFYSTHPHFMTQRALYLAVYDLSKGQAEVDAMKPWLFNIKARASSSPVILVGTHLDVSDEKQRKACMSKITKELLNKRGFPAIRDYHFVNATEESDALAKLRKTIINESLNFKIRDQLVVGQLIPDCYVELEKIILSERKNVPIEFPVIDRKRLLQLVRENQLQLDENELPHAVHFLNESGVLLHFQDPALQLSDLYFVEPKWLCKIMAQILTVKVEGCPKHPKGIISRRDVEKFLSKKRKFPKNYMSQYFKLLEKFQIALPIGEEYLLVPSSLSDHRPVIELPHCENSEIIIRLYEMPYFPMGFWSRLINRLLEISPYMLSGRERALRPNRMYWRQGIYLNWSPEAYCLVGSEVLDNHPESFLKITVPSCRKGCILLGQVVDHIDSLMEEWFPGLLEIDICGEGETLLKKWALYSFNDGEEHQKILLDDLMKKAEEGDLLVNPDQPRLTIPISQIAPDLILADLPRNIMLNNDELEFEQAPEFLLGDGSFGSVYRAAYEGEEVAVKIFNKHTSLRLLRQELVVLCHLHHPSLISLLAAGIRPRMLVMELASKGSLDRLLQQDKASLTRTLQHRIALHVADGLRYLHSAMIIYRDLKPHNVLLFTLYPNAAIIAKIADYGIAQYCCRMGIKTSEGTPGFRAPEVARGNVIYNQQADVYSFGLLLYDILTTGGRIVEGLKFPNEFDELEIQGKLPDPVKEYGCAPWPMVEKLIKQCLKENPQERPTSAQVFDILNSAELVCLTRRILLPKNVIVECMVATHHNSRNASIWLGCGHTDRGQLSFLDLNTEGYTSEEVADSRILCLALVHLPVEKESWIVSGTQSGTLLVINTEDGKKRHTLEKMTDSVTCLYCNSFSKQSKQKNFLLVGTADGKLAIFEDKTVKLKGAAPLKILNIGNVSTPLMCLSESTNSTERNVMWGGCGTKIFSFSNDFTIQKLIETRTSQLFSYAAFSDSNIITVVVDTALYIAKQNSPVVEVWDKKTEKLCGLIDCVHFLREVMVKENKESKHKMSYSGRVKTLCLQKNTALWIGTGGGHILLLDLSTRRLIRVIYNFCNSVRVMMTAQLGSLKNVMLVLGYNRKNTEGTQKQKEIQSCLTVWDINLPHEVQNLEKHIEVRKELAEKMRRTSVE

[10] = biological target: ALK tyrosine kinase receptor (Homo sapiens, UniProt Q9UM73);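 also: ALK tested as one member of a kinase panel screen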
[11] = biological target: Hepatocyte growth factor receptor (Homo sapiens, UniProt P08581);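 also: kinase panel profiling across the kinome, with MET as the panel member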
[12] = biological target: T2, Serine/threonine-protein kinase TAO1 (Homo sapiens, UniProt Q7L7X3)
T2 sequence (Q7L7X3 whole entry): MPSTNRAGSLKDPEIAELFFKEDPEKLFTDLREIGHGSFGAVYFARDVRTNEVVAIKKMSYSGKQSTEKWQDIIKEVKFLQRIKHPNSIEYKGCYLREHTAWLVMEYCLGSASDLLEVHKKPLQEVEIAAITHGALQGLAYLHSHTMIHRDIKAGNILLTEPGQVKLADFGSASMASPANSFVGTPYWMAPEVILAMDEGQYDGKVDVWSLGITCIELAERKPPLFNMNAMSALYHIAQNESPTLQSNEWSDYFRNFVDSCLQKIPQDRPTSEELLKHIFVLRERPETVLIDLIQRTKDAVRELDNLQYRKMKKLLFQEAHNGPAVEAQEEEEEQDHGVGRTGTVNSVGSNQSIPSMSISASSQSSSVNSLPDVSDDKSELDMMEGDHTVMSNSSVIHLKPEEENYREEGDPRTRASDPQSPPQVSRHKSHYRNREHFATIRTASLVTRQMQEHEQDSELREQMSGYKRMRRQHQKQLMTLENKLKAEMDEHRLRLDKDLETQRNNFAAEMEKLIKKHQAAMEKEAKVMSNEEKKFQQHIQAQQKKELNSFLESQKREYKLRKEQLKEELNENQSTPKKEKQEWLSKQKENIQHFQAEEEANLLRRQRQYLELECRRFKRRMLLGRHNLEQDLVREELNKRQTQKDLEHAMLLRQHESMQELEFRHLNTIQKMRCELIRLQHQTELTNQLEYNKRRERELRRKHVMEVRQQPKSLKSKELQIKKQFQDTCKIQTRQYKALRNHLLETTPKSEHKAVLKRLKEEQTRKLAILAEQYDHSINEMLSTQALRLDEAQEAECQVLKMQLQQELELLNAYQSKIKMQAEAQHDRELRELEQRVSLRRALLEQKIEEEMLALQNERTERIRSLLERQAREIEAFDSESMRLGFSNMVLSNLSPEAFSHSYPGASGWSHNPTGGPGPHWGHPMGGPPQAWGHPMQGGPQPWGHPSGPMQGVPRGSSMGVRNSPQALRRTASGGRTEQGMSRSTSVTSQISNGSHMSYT

Chain of Dual specificity mitogen-activated protein kinase kinase 1 (Q02750 whole entry): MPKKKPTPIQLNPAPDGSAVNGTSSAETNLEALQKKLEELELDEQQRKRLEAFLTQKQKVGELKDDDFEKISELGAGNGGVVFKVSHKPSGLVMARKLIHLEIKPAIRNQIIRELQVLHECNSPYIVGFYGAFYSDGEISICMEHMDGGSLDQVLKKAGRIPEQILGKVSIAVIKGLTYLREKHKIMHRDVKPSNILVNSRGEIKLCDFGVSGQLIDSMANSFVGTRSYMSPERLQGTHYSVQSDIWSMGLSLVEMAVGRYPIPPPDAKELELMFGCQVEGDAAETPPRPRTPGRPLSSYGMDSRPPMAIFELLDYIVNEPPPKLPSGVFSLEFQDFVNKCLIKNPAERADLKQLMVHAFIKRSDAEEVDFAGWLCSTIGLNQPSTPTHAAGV
Chain of Serine/threonine-protein kinase pim-1 (P11309 whole entry): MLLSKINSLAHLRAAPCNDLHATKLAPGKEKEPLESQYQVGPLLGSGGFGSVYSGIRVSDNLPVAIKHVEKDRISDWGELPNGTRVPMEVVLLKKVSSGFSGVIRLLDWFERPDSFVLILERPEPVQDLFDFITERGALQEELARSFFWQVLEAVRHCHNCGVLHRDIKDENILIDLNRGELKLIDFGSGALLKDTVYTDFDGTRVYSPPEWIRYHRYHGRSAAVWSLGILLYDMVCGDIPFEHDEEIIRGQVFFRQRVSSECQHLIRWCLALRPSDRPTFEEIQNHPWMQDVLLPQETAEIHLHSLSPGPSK

Compound	Ki [1]	Ki [2]	Ki [3]	Ki [4]	Ki [5]	Ki [6]	Ki [7]	Ki [8]	Ki [9]	Ki [10]	Ki [11]	Ki [12]
O=C(Nc1cccc(C(F)(F)F)n1)Nc1ccnc2cc(OC(F)F)ccc12	> 6.31 µM (inactive)	> 3.16 µM (inactive)	> 2.51 µM (inactive)	> 5.01 µM (inactive)	> 1.58 µM (inactive)	> 3.16 µM (inactive)	> 3.98 µM (inactive)	> 3.98 µM (inactive)	> 2.51 µM (inactive)	> 6.31 µM (inactive)	> 2.51 µM (inactive)	> 6.31 µM (inactive)
O=C(Nc1cccc(C(F)(F)F)n1)Nc1ccnc2cc(Cl)ccc12	> 5.01 µM (inactive)	3.16 µM (active)	> 2.51 µM (inactive)	3.98 µM (active)	> 1.58 µM (inactive)	2.51 µM (active)	> 3.98 µM (inactive)	> 3.98 µM (inactive)	> 2.51 µM (inactive)	> 6.31 µM (inactive)	> 2.51 µM (inactive)	> 6.31 µM (inactive)
CCC1CC(NS(=O)(=O)C2CC2)CC1c1ncc2cnc3[nH]ccc3n12 (centres undefined)	> 6.31 µM (inactive)	> 3.16 µM (inactive)	0.2 µM (active)	0.00398 µM (active)	> 1.58 µM (inactive)	> 3.16 µM (inactive)	2 µM (active)	> 3.98 µM (inactive)	0.1 µM (active)	1 µM (active)	> 2.51 µM (inactive)	> 2 µM (inactive)
O=c1[nH]c2cc(Br)cnc2[nH]1	25.1 µM (active)	50.1 µM (active)	31.6 µM (active)	–	12.6 µM (active)	–	63.1 µM (active)	–	3.98 µM (active)	63.1 µM (active)	–	12.6 µM (active)
